The text below walks through data of patent US9782367B2, “Process for obtaining a modafinil-based pharmaceutical composition, resulting pharmaceutical composition and use thereof” (DEBREGEAS ET ASSOCIES PHARMA, priority 2012, dated 2017).

The conditions of data set [1]: cited from earlier work.
The conditions of data set [2]: estimated; absolute bioavailability could not be determined; cited from earlier work.
Data set [3] can be described thus: solubility in supercritical fluid (CO2 or tetrafluoroethane). It is filed as physicochemical. The note with it: supercritical CO2, FIG. 1. From the text:
From among these supercritical fluids, mention may be made of CO2: the technology of supercritical CO2 is based on the solvent power of CO2 which may be modulated at will depending on the pressure and temperature conditions applied to it.
A method for extraction with supercritical CO2 operates in a closed circuit. It includes pressurizing units (pumps) and a temperature-setting unit (exchangers) in order to bring CO2 above its critical point.
The product to be treated is placed in an extractor crossed by the supercritical CO2 flow. Molecules which are soluble in supercritical CO2, therefore extractable, are not very polar compounds with a low molecular mass.
The table below repeats the result when using S modafinil, and mannitol instead of anhydrous lactose; further the loading level was increased to about 30%.

For data set [4] the following is noted: cited from earlier work. This is another data set of the same source.

Molecules are shown by their SMILES.

Take `NC(=O)C[S+]([O-])C(c1ccccc1)c1ccccc1` (racemic) [Modafinil]: the “solubility in methanol and acetone” value in data set [1] (methanol and acetone) is given as “partly soluble”. Moreover, the solubility in water result in data set [1] (water) is recorded as “practically insoluble”. Further, in data set [2], the bioavailability entry is reported as “about 40%”. Besides, the “solubility in CO2” value in data set [3] is given as “acceptable solubility”. Also, the elimination half life result in data set [4] (in humans) is “about 14 hours”.
Consider `NC(=O)C[S@@+]([O-])C(c1ccccc1)c1ccccc1` (single isomer, unassigned) [levo-rotatory enantiomer (R)], for which, in data set [4] (after administration), the “AUC compared with the racemic form” value is reported as “larger AUC than the racemic form” and the “variability in plasma levels compared with the racemic form” value is listed as “less variability”.
